Test results published in patent publication US4497803A, “Inclusion compound of lankacidin-group antibiotic and use thereof” (priority 1982, dated 1985).
Values after ≈ are worked out from the molar mass of the structure shown. Where two headings read alike, the source gives them in different places.

Columns and labels:
St. aureus 209P = test: Stability of inclusion compound of lankacidin-group (24° C., for 6 days): antibacterial activity by paper disk assay; format: cell-based; conditions: methanol
Protocol: The inclusion compound of the present invention is stable in an aqueous solution, although it splits into lankacidin-group moiety and cyclodextrins moiety, when it is in the form of solution or powder, by contacting it with organic solvents (e.g., ethyl acetate, methyl isobutyl ketone) or various carriers (e.g., silica gel, high-porous resins). […] In comparing the antibacterial activity, concentrations of the inclusion compound are calculated in terms of lankacidin-group compound from which the inclusion compound is prepared.
Stability of inclusion compound of lankacidin-group
*1 Paper disk assay using Trypticase soy agar (Baltimore Biologicals Ltd.
U.S.A.) as test culture media.
*2 1000 μg/ml, Lankacidingroup is stable in methanol.
*3 Aqueous solution of the inclusion compound with cyclodextrin (1000
μg/ml calculated in terms of lankacidingroup)

[1] = Stability of lankacidin A and C in methanolic aqueous solutions, 40° C., HPLC (Example 7); format: physicochemical; conditions: for Residual rate / remaining at 4 h / remaining at 6 h: 10 μg/ml, 40° C.; for Residual rate: 0 hr; for Effect of β-cyclodextrin on stability in methanolic aqueous solutions: 1000 times β-CD by weight added; for remaining at 4 h / remaining at 6 h: read-out: Residual rate
Protocol: 5 ml each of a methanolic solution containing lankacidin A or C in a concentration of 100 μg per ml was added to 45 ml each of pH 4.5 and pH 7.0 buffer solutions and a buffer solution containing β-cyclodextrin.
Each mixture was placed in a glass vessel, and then sealed. While the mixtures were kept in the vessel at 40° C., 5 ml each was taken out from time to time and extracted with ethyl acetate. The organic layers were dried over anhydrous sodium sulfate and the concentrations of the lankacidin A or C was measured with high-performance liquid chromatography (HPLC).
Apparatus: Water Associates ALC/GPC 240 (Waters Associates Inc., U.S.A.)
Column: μPoracil 30 cm×3.9 mm.phi.
Eluent: n-Hexane: isopropyl alcohol: acetic acid (75:25:0.2).

[2] = Solubility / suspension in physiological saline for injection (Test Example); format: physicochemical
Protocol: 10 mg (titer) calculated in terms of lankacidin A is soluble in 1 ml each of physiological saline solution. As a control, lankacidin A itself used in Example 5 was employed.
5.2 ml (titer: 10 mg/kg) of this suspension was administered to pig No. 1 and 4.9 ml (titer: 7 mg/kg) was administered to pig No. 2 by injecting it into root portion of ear once a day for two days.
Thus, administration was impossible.

[3] = Solubility of inclusion compound in water; format: physicochemical
Protocol: The lankacidin-group is added to each of solutions containing various amounts of cyclodextrin. The minimum concentration of cyclodextrin which dissolves the maximum amount of the lankacidin-group compound and practical concentrations thereof are determined on the basis of amounts of the lankacidin-group compound dissolved in the cyclodextrin solutions. Then, the molar ratio of cyclodextrin to lankacidin-group compound is calculated by the following equation:
Molar ratio=[Molarity of cyclodextrin]:[(Saturation molarity of lankacidin-group compound in a certain concentration of cyclodextrin-solution)-(saturation molarity of lankacidin-group compound in an aqueous solution)].
Moreover, a large amount of the present inclusion compound is dissolved in water and it is kept stably therein. Solubility of the inclusion compound in water is greater than that of landacidin-group compounds in water, when the amount of the inclusion compound dissolved is calculated in terms of lankacidin-group compound, and than saturation concentration of cyclodextrin in water so far as cyclodextrin contained in the inclusion compound is concerned (Table 2).
(1) Solubility of lankacidingroup in water.
(2) Solubility of lankacidingroup in M/100 cyclodextrin solution.
(3) Concentration of cyclodextrin of (2).
(4) Solubility (maximum) of the present inclusion compound (calculated in
terms of lankacidingroup contained) in water.
(5) Concentration of cyclodextrin contained in the inclusion compound of […]

[4] = Solubility in β-CD solution, shaken 16 hours (Example 3); format: physicochemical; conditions: for Solubility in β-CD solution as function of β-CD concentration: from the vicinity of 10^-3 Mol/l of β-CD
Protocol: (§1) Powdery lankacidin C was added to an aqueous solution of cyclodextrin (hereinafter referred to as "CD") to have 4 mg/ml of the lankacidin C contained. After the mixture was stirred with a mixer, it was shaken at 5° C. for 2 hours, and passed through filter paper. The absorbancy of the filtrate was measured at 227-229 nm to determine concentration of the lankacidin C.
The solubilities of lankacidin A, lankacidin C and lankacidinol in a β-CD solution were measured in the same manner as that of Example 1 except that the shaking was continued for 16 hours.

[5] = Solubility of lankacidin C in aqueous cyclodextrin solution, shaken at 5° C. for 2 hours (Example 1); format: physicochemical
Protocol: as §1

[6] = pH 7.0, β-cyclodextrin 10 mg/ml
[7] = methanolic aqueous buffer, pH 7.0, no β-cyclodextrin
[8] = methanolic buffer with β-cyclodextrin, pH 4.5, β-cyclodextrin 10 mg/ml
[9] = methanolic buffer with β-cyclodextrin, pH 7.0, β-cyclodextrin 10 mg/ml
[10] = m/100 cyclodextrin solution, M/100 cyclodextrin, (3) cyclodextrin 11.3 mg/ml, read-out: (2) Solubility of lankacidin-group in M/100 cyclodextrin solution
[11] = water, read-out: (1) Solubility of lankacidin-group in water
[12] = aqueous β-cd solution, β-CD 2 × 10^-3 Mol/l
[13] = aqueous β-cd solution, β-CD 2 × 10^-4 Mol/l
[14] = aqueous β-cd solution, β-CD 5 × 10^-3 Mol/l
[15] = aqueous β-cd solution, β-CD 5 × 10^-4 Mol/l
[16] = aqueous β-cd solution, β-CD 10^-2 Mol/l
[17] = aqueous β-cd solution, β-CD 10^-3 Mol/l
[18] = aqueous β-cd solution, β-CD 10^-4 Mol/l

| Structure (SMILES) | Residual rate ([1]; pH 7.0, no β-cyclodextrin) | Residual rate [1, 6] | Effect of β-cyclodextrin on stability in methanolic aqueous solutions [1] | remaining at 6 h [1, 9] | solubility [3, 10] | solubility [3, 11] | solubility at 16 h [4, 12] | solubility at 16 h [4, 13] | solubility at 16 h [4, 14] | solubility at 16 h [4, 15] | solubility at 16 h [4, 16] | solubility at 16 h [4, 17] | solubility at 16 h [4, 18] | Solubility in β-CD solution as function of β-CD concentration [4] | solubility at 16 h ([4]; water, β-CD 0 Mol/l) | also measured |
| --- | --- | --- | --- | --- | --- | --- | --- | --- | --- | --- | --- | --- | --- | --- | --- | --- |
| CC(=O)OC1C=CC(C)=CCC(O)C=CC(C)=CC(NC(=O)C(C)=O)C2(C)C(=O)OC(C1)C(C)C2=O (centres unmarked) [Lankacidin A, lankacidin A] | 100% | 100% | increased stabilities | 48.1% | 2690 µg/mL (≈ 5360 µM) | 181 µg/mL (≈ 361 µM) | 632 µg/mL (≈ 1260 µM) | 201 µg/mL (≈ 401 µM) | 1370 µg/mL (≈ 2730 µM) | 265 µg/mL (≈ 528 µM) | 2690 µg/mL (≈ 5360 µM) | 400 µg/mL (≈ 797 µM) | 195 µg/mL (≈ 389 µM) | increase in proportion to the concentration of β-CD | 181 µg/mL (≈ 361 µM) | Antibacterial activity, inhibition diameter (St. aureus 209P; 0 day, 1000 μg/ml): 26.75 mm; Antibacterial activity, inhibition diameter (St. aureus 209P; 3 days at 24° C., 1000 μg/ml): 27.0 mm; Antibacterial activity, inhibition diameter (St. aureus 209P; 6 days at 24° C., 1000 μg/ml): 23.25 mm; Residual rate ([1]; pH 4.5, no β-cyclodextrin): 100%; Residual rate ([1]; pH 4.5, β-cyclodextrin 10 mg/ml): 100%; remaining at 4 h ([1]; methanolic aqueous buffer, pH 4.5, no β-cyclodextrin): 34.5%; remaining at 4 h [1, 7]: 17.4%; remaining at 4 h [1, 8]: 91.9%; remaining at 6 h [1, 8]: 85.7%; remaining at 4 h [1, 9]: 58.3%; Preparation of injection/suspension in sterilized physiological saline solution [2]: suspension could not be obtained due to separation of the drug |
| CC(=O)C(=O)NC1C=C(C)C=CC(O)CC=C(C)C=CC(O)CC2OC(=O)C1(C)C(=O)C2C (centres unmarked) [Lankacidin C, lankacidin C] | 100% | 100% | increased stabilities | 88.2% | 3540 µg/mL (≈ 7700 µM) | 268 µg/mL (≈ 583 µM) | 934 µg/mL (≈ 2030 µM) | 304 µg/mL (≈ 662 µM) | 1780 µg/mL (≈ 3870 µM) | 409 µg/mL (≈ 890 µM) | 3350 µg/mL (≈ 7290 µM) | 566 µg/mL (≈ 1230 µM) | 262 µg/mL (≈ 570 µM) | increase in proportion to the concentration of β-CD | 237 µg/mL (≈ 516 µM) | Antibacterial activity, inhibition diameter (St. aureus 209P; 0 day, 100 μg/ml): 28.25 mm; Antibacterial activity, inhibition diameter (St. aureus 209P; 3 days at 24° C., 100 μg/ml): 29.5 mm; Antibacterial activity, inhibition diameter (St. aureus 209P; 6 days at 24° C., 100 μg/ml): 29.5 mm; remaining at 6 h [1, 7]: 43.7%; solubility at 2 h [5, 16]: 3730 µg/mL (≈ 8120 µM); solubility at 2 h [5, 17]: 650 µg/mL (≈ 1410 µM); solubility at 2 h [5, 18]: 280 µg/mL (≈ 609 µM); solubility at 2 h ([5]; aqueous γ-cd solution, γ-CD 10^-2 Mol/l): 2390 µg/mL (≈ 5200 µM); solubility at 2 h ([5]; aqueous γ-cd solution, γ-CD 10^-3 Mol/l): 460 µg/mL (≈ 1000 µM); solubility at 2 h ([5]; aqueous γ-cd solution, γ-CD 10^-4 Mol/l): 260 µg/mL (≈ 566 µM); solubility at 2 h ([5]; aqueous γ-cyclodextrin solution, γ-CD 10^-1 Mol/l): 3790 µg/mL (≈ 8250 µM); solubility at 2 h ([5]; water, β-CD, CD 0 Mol/l): 260 µg/mL (≈ 566 µM); solubility at 2 h ([5]; water, γ-CD, CD 0 Mol/l): 260 µg/mL (≈ 566 µM); Solubility in CD solution ([5]; β-CD and γ-CD solution): high solubility; solubility ([4]; β-CD 10^-3 Mol/l, 960 min): 715 µg/mL (≈ 1560 µM) |
